Measured values taken from paper PMC8989888, “Development of optimized drug-like small molecule inhibitors of the SARS-CoV-2 3CL protease for treatment of COVID-19” (Nature Communications, 2022).
Like-named read-outs stand apart in the source and are kept apart here.

Molecular target: SARS-CoV-2 3CL protease (Severe acute respiratory syndrome coronavirus 2, UniProt P0DTD1)
Assay type: biochemical
Design: Avg: unit not given here
Conditions: for Inhibition at 10 µM: 10 µM compound; for Inhibition at 100 µM: 100 µM compound; for IC50 / LogIC50: Figure S1 and S2
[1] = Conc 10 µM, mean response (inhibition) of dose-response curve
[2] = Conc 15 µM, mean response (inhibition) of dose-response curve
[3] = Conc 20 µM, mean response (inhibition) of dose-response curve
[4] = Conc 50 µM, mean response (inhibition) of dose-response curve
[5] = Conc 100 µM, mean response (inhibition) of dose-response curve
[6] = Conc 200 µM, mean response (inhibition) of dose-response curve
[7] = dose-response curve of fragment hit
[8] = log of IC50 (µM), dose-response curve fit
[9] = Conc 10 µM, average response of dose-response curve
[10] = Conc 15 µM, average response of dose-response curve
[11] = Conc 20 µM, average response of dose-response curve
[12] = Conc 50 µM, average response of dose-response curve
[13] = Conc 100 µM, average response of dose-response curve
[14] = Conc 200 µM, average response of dose-response curve
[15] = dose-response retest of fragment hits

Row | Compound | Inhibition at 10 µM | Inhibition at 100 µM | Avg [1] | Avg [2] | Avg [3] | Avg [4] | Avg [5] | Avg [6] | IC50 [7] | LogIC50 (log10 of IC50 in µM) | Avg [9] | Avg [10] | Avg [11] | Avg [12] | Avg [13] | Avg [14] | IC50 [15] | LogIC50 (log of IC50 in µM) | also measured
1 | Cc1cc(C(=O)CCl)c(C)n1-c1nccs1 [Z56979277] | 64% | 100% | 63.6 | 80.9 | 90.9 | 95.6 | 101.9 | 108.5 |  |  |  |  |  |  |  |  |  |  | 
2 | Cc1cc(C(=O)CCl)c(C)n1-c1ncn[nH]1 [Z57014347] | 35% | 100% | 35.1 | 51.1 | 60.8 | 75.5 | 101.2 | 107.2 | 15.4 µM | 1.188 |  |  |  |  |  |  |  |  | 
3 | CN(c1ccc(C(=O)CCl)cc1)S(C)(=O)=O [Z57982062] | 47% | 94% | 47.1 | 48.1 | 62 | 79.8 | 93.6 | 99.3 | 13.5 µM | 1.131 |  |  |  |  |  |  |  |  | 
4 | CCN(c1ccc(C(=O)CCl)cc1)S(C)(=O)=O [Z85932823] | 25% | 84% | 25.1 | 25.8 | 34.6 | 58.2 | 84.1 | 87.1 | 39.7 µM | 1.598 |  |  |  |  |  |  |  |  | 
5 | CC1C(=O)Nc2ccc(C(=O)CCl)cc21 (centres unmarked) [Z94598687] | 3% | 85% | 3 | 12.3 | 39.4 | 61.2 | 84.9 | 105.3 | 33.9 µM | 1.53 |  |  |  |  |  |  |  |  | 
6 | O=C(CCl)NC(=O)OCc1ccccc1 [Z108566700] | 22% | 100% |  |  |  |  |  |  |  |  |  |  |  |  |  |  |  |  | Avg (Conc 10 µM): 22.2; Avg (Conc 15 µM): 41.7; Avg (Conc 20 µM): 51.1; Avg (Conc 50 µM): 86.4; Avg (Conc 100 µM): 100.3; Avg (Conc 200 µM): 108.1; IC50 (dose-response curve fit): 19 µM; LogIC50 [8]: 1.279
7 | Cc1cc(C(=O)CCl)c(C)n1-c1ccccn1 [Z126674012] | 36% | 91% |  |  |  |  |  |  |  |  |  |  |  |  |  |  |  |  | Avg (Conc 10 µM): 35.8; Avg (Conc 15 µM): 45.3; Avg (Conc 20 µM): 61.2; Avg (Conc 50 µM): 80.4; Avg (Conc 100 µM): 91.2; Avg (Conc 200 µM): 99.9; IC50 (dose-response curve fit): 15.8 µM; LogIC50 [8]: 1.197
8 | O=C(CCl)N1CCN(Cc2cccs2)CC1 [Z166605372] | 3% | 70% |  |  |  |  |  |  |  |  | 3.4 | 11.2 | 27.4 | 53.6 | 69.5 | 93 | 47.5 µM | 1.677 | 
9 | Cc1ccccc1CN1CCN(C(=O)CCl)CC1 [Z208155076] | 18% | 85% |  |  |  |  |  |  |  |  | 18.2 | 5.8 | 36.6 | 64.8 | 84.6 | 98.1 | 35.8 µM | 1.554 | 
10 | O=C(CCl)c1ccc(N2CCCC2=O)cc1 [Z221603842] | 47% | 87% |  |  |  |  |  |  |  |  | 46.5 | 48.2 | 62.2 | 77.1 | 86.9 | 83.1 | 14 µM | 1.147 | 
11 | NS(=O)(=O)c1ccc(S)nc1 [Z235344787] | 6% | 100% |  |  |  |  |  |  |  |  | 5.7 | 20.7 | 38.6 | 106.4 | 110.1 | 111.3 | 22.3 µM | 1.348 | 
12 | O=C(NCCc1ccc(F)cc1)n1ccnc1 [Z235353843] | 30% | 96% |  |  |  |  |  |  |  |  | 29.9 | 15.5 | 42.1 | 82.2 | 95.9 | 102.1 | 27.6 µM | 1.441 | 
13 | O=C(c1ccc(S)nc1)N1CCCC1 [Z235362941] | 0% | 100% |  |  |  |  |  |  |  |  | 0.4 | 23.9 | 31.4 | 102.7 | 108.6 | 116.6 | 23.9 µM | 1.378 | 
